System: healthy volunteers
Experiment: Plasma amino acid levels in healthy volunteers (MAD)
Assay type: in vivo, human
Description: The effect of JNT-517 on plasma and urine AA levels was measured using an ultra-performance liquid chromatography mass spectrometry assay following 6-aminoquinolyl-N-hydroxysuccinimidyl carbamate (AQC) derivatization. For the SAD study, plasma samples were collected on day –1 and day 1 predose, as well as 24, 48, and 72 hours after dosing. A first morning void urine sample on Days –1 and 1 predose, as well as 2 pooled urine samples 0–8 hours after and 8–24 hours after dose were also collected following study drug administration. For the MAD study, plasma samples were collected on day –1, 1, 7, and 14 predose, as well as day 14, 24 hours after dosing. A first morning void urine samples on day –1, 1, 7, and 14 as well as 2 pooled urine samples 0–8 hours and 8–24 hours after dose on days 1, 7, and 14 were also collected following JNT-517 or placebo administration. Study participants in SAD and MAD cohorts were dosed in the morning following an overnight fast of at least 8 hours and were provided the following meals in relation to dosing times: breakfast after the morning dose, lunch 4 hours after morning dose, optional snack in the afternoon 8 hours after the morning dose and after the second dose for MAD cohorts dosed BID, dinner approximately 10 hours after the morning dose and at least 2 hours after the second dose for MAD cohorts dosed BID. Predose plasma amino acids were drawn after a minimum of 8 hours fasting overnight and after-dose levels were drawn after > 1.5 hours fasting. Resulting plasma and urine amino acid concentration measurements, as well a total amino acid excretion over a time period were summarized using appropriate descriptive statistics and compared with either predose levels or placebo-dose values. Tryptophan was not included in the amino acid panel due to analytical limitations.

NC(=O)N1CCC[C@@H](N(C(=O)NCc2ccc(OC(F)(F)F)cc2F)C2CC2)C1 [JNT-517]
number of subjects with plasma Alanine below lower limit of normal (MAD 25 mg BID, Post-dose): 0
number of subjects with plasma Arginine below lower limit of normal (MAD 25 mg BID, Post-dose): 0
number of subjects with plasma Asparagine below lower limit of normal (MAD 25 mg BID, Post-dose): 0
number of subjects with plasma Cystine below lower limit of normal (MAD 25 mg BID, Post-dose): 5
number of subjects with plasma Glutamate below lower limit of normal (MAD 25 mg BID, Post-dose): 0
number of subjects with plasma Glutamine below lower limit of normal (MAD 25 mg BID, Post-dose): 0
number of subjects with plasma Glycine below lower limit of normal (MAD 25 mg BID, Post-dose): 0
number of subjects with plasma Isoleucine below lower limit of normal (MAD 25 mg BID, Post-dose): 0
number of subjects with plasma Leucine below lower limit of normal (MAD 25 mg BID, Post-dose): 0
number of subjects with plasma Lysine below lower limit of normal (MAD 25 mg BID, Post-dose): 0
number of subjects with plasma Methionine below lower limit of normal (MAD 25 mg BID, Post-dose): 0
number of subjects with plasma Phenylalanine below lower limit of normal (MAD 25 mg BID, Post-dose): 0
number of subjects with plasma Proline below lower limit of normal (MAD 25 mg BID, Post-dose): 0
number of subjects with plasma Serine below lower limit of normal (MAD 25 mg BID, Post-dose): 0
number of subjects with plasma Threonine below lower limit of normal (MAD 25 mg BID, Post-dose): 0
number of subjects with plasma Tyrosine below lower limit of normal (MAD 25 mg BID, Post-dose): 0
number of subjects with plasma Valine below lower limit of normal (MAD 25 mg BID, Post-dose): 0
number of subjects with plasma Alanine below lower limit of normal (MAD 75 mg BID, Post-dose): 0
number of subjects with plasma Arginine below lower limit of normal (MAD 75 mg BID, Post-dose): 0
number of subjects with plasma Asparagine below lower limit of normal (MAD 75 mg BID, Post-dose): 0
number of subjects with plasma Cystine below lower limit of normal (MAD 75 mg BID, Post-dose): 0
number of subjects with plasma Glutamate below lower limit of normal (MAD 75 mg BID, Post-dose): 0
number of subjects with plasma Glutamine below lower limit of normal (MAD 75 mg BID, Post-dose): 0
number of subjects with plasma Glycine below lower limit of normal (MAD 75 mg BID, Post-dose): 0
number of subjects with plasma Isoleucine below lower limit of normal (MAD 75 mg BID, Post-dose): 0
number of subjects with plasma Leucine below lower limit of normal (MAD 75 mg BID, Post-dose): 0
number of subjects with plasma Lysine below lower limit of normal (MAD 75 mg BID, Post-dose): 0
number of subjects with plasma Methionine below lower limit of normal (MAD 75 mg BID, Post-dose): 0
number of subjects with plasma Phenylalanine below lower limit of normal (MAD 75 mg BID, Post-dose): 0
number of subjects with plasma Proline below lower limit of normal (MAD 75 mg BID, Post-dose): 0
number of subjects with plasma Serine below lower limit of normal (MAD 75 mg BID, Post-dose): 0
number of subjects with plasma Threonine below lower limit of normal (MAD 75 mg BID, Post-dose): 0
number of subjects with plasma Tyrosine below lower limit of normal (MAD 75 mg BID, Post-dose): 0
number of subjects with plasma Valine below lower limit of normal (MAD 75 mg BID, Post-dose): 0
number of subjects with plasma Alanine below lower limit of normal (MAD 150 mg QD, Post-dose): 0
number of subjects with plasma Arginine below lower limit of normal (MAD 150 mg QD, Post-dose): 0
number of subjects with plasma Asparagine below lower limit of normal (MAD 150 mg QD, Post-dose): 0
number of subjects with plasma Cystine below lower limit of normal (MAD 150 mg QD, Post-dose): 5
number of subjects with plasma Glutamate below lower limit of normal (MAD 150 mg QD, Post-dose): 0
number of subjects with plasma Glutamine below lower limit of normal (MAD 150 mg QD, Post-dose): 0
number of subjects with plasma Glycine below lower limit of normal (MAD 150 mg QD, Post-dose): 0
number of subjects with plasma Isoleucine below lower limit of normal (MAD 150 mg QD, Post-dose): 0
number of subjects with plasma Leucine below lower limit of normal (MAD 150 mg QD, Post-dose): 0
number of subjects with plasma Lysine below lower limit of normal (MAD 150 mg QD, Post-dose): 0
number of subjects with plasma Methionine below lower limit of normal (MAD 150 mg QD, Post-dose): 0
number of subjects with plasma Phenylalanine below lower limit of normal (MAD 150 mg QD, Post-dose): 0
number of subjects with plasma Proline below lower limit of normal (MAD 150 mg QD, Post-dose): 0
number of subjects with plasma Threonine below lower limit of normal (MAD 150 mg QD, Post-dose): 0
number of subjects with plasma Valine below lower limit of normal (MAD 150 mg QD, Post-dose): 0
number of subjects with plasma Serine below lower limit of normal (MAD 150 mg QD, Post-dose (16.7%)): 1
number of subjects with plasma Tyrosine below lower limit of normal (MAD 150 mg QD, Post-dose (33.3%)): 2
